Patent US7842703B2, “Substituted benzofused derivatives and their use as vanilloid receptor ligands” (Glenmark Pharmaceuticals S.A., priority 2005, dated 2010)

Biological target: T1, Human TRPV1 expressing CHO cells (Homo sapiens, UniProt Q8NER1)
T1 construct: expressed in transfected cells; host or cells: CHO cells under G-418 selection
Assay: Screening for TRPV1 antagonist using the 45Calcium uptake assay (inhibition of capsaicin induced cellular uptake of radioactive calcium)
Format: cell-based
Details: for inhibition at 1 µM: CHO; for inhibition at 1 µM / % inhibition of ^45Ca uptake at 1 μM: test compound 1 μM, capsaicin 250 nM, relative to maximum ^45Ca uptake induced by capsaicin alone; for IC50: inhibition of capsaicin (250 nM) induced ^45Ca uptake
Experimental: The inhibition of TRPV1 receptor activation was followed as inhibition of capsaicin induced cellular uptake of radioactive calcium which represents calcium influx exclusively through the plasma membrane associated TRPV1 receptor.
Stock solution of capsaicin was made in ethanol and test compounds in 100% DMSO. Stock solutions were diluted to appropriate final concentrations in assay buffer keeping the final DMSO concentration between 0.1% and 0.55%.
^45Ca was used at a final concentration of 2.5 μCi/ml (^45Ca, ICN).
Assay buffer was composed of F-12 DMEM medium supplemented with 1.8 mM CaCl2 (final conc.) and 0.1% Bovine serum albumin. (BSA from SIGMA)
Wash buffer was tyrodes solution supplemented with 0.1% BSA and 1.8 mM calcium. Lysis buffer contained 50 mM Tris-HCl, pH7.5, 150 mM NaCl, 1% Triton X-100, 0.5% deoxycholate and 0.1% Sodium dodicyl sulphate (SDS, SIGMA)
Assay was carried out with some modifications the of procedure as described by Toth et. al. (See Toth A et. al., Life Sciences 73 p 487-498, 2003). Human TRPV1 expressing CHO cells were grown in F-12 DMEM (Dulbecco's modified Eagle's medium—GIBCO) medium with 10% FBS (fetal bovine serum Hyclone), 1% penicillin-streptomycin solution, 400 μg/ml of G-418. Cells were seeded 48 h prior to the assay in 96 well plates so as to get ˜50,000 cells per well on the day of experiment. Plates were incubated at 37° C. in the presence of 5% CO2. Cells were then washed twice with 200 μl of assay buffer and re-suspended in 144 μl of the same. Assay was carried out at 30° C. in total volume of 200 μl. Test compounds were added to the cells fifteen minutes before addition of capsaicin, Final concentration of capsaicin in the assay was 250 nM. After 5 minutes of agonist treatment, drug was washed out and wells rinsed with 300 μl of ice cold wash buffer 3×. The cells were lysed in 50 μl lysis buffer for 20 min. 40 μl of cell lysate was mixed with 150 μl of Microscint PS, left overnight for equilibration. Radioactivity in samples was measured as counts per minute (cpm) using Packard Biosciences Top Count. The drug/vehicle/capsaicin treated ^45Ca uptake values were normalized over basal ^45Ca value. Data was expressed as % inhibition of ^45Ca uptake by test compound with respect to maximum ^45Ca uptake induced by capsaicin alone. IC50 value was calculated from dose response curve by nonlinear regression analysis using GraphPadPRISM software.

T1 sequence (Q8NER1 whole entry): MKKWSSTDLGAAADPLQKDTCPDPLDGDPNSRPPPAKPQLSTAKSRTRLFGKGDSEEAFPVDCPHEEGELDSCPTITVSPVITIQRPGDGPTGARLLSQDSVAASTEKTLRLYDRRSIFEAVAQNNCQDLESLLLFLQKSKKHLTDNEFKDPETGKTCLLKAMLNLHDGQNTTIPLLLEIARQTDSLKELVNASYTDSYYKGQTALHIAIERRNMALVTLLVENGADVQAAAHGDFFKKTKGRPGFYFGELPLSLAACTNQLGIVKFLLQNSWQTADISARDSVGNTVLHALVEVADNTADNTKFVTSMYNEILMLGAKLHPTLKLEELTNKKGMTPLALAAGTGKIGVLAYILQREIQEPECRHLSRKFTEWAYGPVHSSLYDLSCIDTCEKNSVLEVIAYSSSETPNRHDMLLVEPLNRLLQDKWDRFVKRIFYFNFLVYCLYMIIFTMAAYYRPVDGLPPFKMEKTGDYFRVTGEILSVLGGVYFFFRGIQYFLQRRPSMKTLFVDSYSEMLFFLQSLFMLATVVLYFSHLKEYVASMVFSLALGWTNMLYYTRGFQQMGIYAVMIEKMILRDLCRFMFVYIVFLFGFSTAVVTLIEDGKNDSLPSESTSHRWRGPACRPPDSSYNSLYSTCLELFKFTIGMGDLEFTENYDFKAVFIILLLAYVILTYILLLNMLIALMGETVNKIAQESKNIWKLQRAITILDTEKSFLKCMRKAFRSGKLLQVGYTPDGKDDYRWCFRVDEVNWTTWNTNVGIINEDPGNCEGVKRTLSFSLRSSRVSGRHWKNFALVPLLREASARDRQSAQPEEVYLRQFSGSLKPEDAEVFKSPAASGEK

SMILES	inhibition at 1 µM [%]	IC50 [nM]	% inhibition of ^45Ca uptake at 1 μM [%]
O=C(Nc1cccc2cnccc12)NC1CC2(CCC2)Oc2c(F)cc(F)cc21 (single isomer, unassigned; (+)) [Example 59]	> 50	7.59	
O=C(Nc1cccc2cnccc12)NC1CC2(CCC2)Oc2ccc(F)cc21 (single isomer, unassigned; (+)) [Example 43, (+) 1-(3,4-Dihydro-6-fluoro-spiro[2H-1-benzopyran-2,1′-cyclobutane]-4-yl)-3-(isoquinolin-5-yl)urea]	> 50	5.2	
O=C(Nc1cccc2cnccc12)NC1CC2(CCOCC2)Oc2ccccc21 (racemic) [Example 2, (±) 1-(2′,3,3′,4,5′,6′-Hexahydrospiro-[2H]-1-benzopyran-2,4′-pyran-4-yl)-3-(isoquinoline-5-yl)urea]		171	96.12
O=C(Nc1ccc(Cl)c2cnccc12)NC1CC2(CCC2)Oc2ccc(F)cc21 (racemic) [Example 71, (±) 1-(6-Fluoro-3,4-dihydro-spiro[2H-1-benzopyran-2,1′-cyclobutane]-4-yl)-3-(8-chloroisoquinolin-5-yl)urea]	> 50	591	
O=C(Nc1cccc2cnccc12)NC1CC2(CCC2)Oc2c(Cl)cccc21 (racemic) [Example 49, (±) 1-(8-Chloro-3,4-dihydro-spiro[2H-1-benzopyran-2,1′-cyclobutane]-4-yl)-3-(isoquinolin-5-yl)urea]	> 50	29.9	
O=C(Nc1nc2cc(Cl)ccc2o1)NC1CC2(CCC2)Oc2ccccc21 (racemic) [Example 23, (±) 1-(3,4-Dihydro-spiro[2H-1-benzopyran-2,1′-cyclobutane]-4-yl)-3-(5-chloro-1,3-benzoxazol-2-yl)urea]	< 50		
O=C(Nc1cccc2cnccc12)NC1CC2(CCC2)Oc2cc(Cl)c(Cl)cc21 (racemic) [Example 68, (±) 1-(6,7-Dichloro-3,4-dihydro-spiro[2H-1-benzopyran-2,1′-cyclobutane]-4-yl)-3-(isoquinolin-5-yl)urea]	> 50	222	
O=C(Nc1cccc2cnccc12)NC1CC2(CCC2)Oc2ccc(O)cc21 (racemic) [Example 45, (±) 1-(3,4-Dihydro-6-hydroxy-spiro[2H-1-benzopyran-2,1′-cyclobutane]-4-yl)-3-(isoquinolin-5-yl)urea]	< 50		
Cc1cc(C)nc(NC(=O)NC2CC3(CCC3)Oc3ccccc32)n1 (racemic) [Example 22, (±) 1-(3,4-Dihydro-spiro[2H-1-benzopyran-2,1′-cyclobutane]-4-yl)-3-(4,6-dimethylpyrimidin-2-yl)urea]	< 50		
Cc1cc2c(cc1Cl)C(NC(=O)Nc1cccc3cnccc13)CC1(CCC1)O2 (racemic) [Example 69, (±) 1-(6-Chloro-3,4-dihydro-7-methyl-spiro[2H-1-benzopyran-2,1′-cyclobutane]-4-yl)-3-(isoquinolin-5-yl)urea]	> 50	45	
O=C(Nc1ccc(Cl)c2cnccc12)NC1CC2(CCC2)Oc2ccccc21 (racemic) [Example 6, (±) 1-(3,4-dihydro-spiro[2H-1-benzopyran-2,1′-cyclobutane]-4-yl)-3-(8-chloroisoquinolin-5-ylurea]	> 50	339	
O=C(Nc1cccc2nsnc12)NC1CC2(CCC2)Oc2ccccc21 (stereo not drawn) [Example 29, N-2,1,3-benzothiadiazol-4-yl-N′-3,3′,4,4′-tetrahydro-2′H-spiro[chromene-2,1′-cyclobutan]-4-ylurea (N-2,1,3-benzothiadiazol-4-yl-N′-3,4-dihydro-2H-spiro[chromene-2,1′-cyclobutan]-4-ylurea)]			<50
O=C(Nc1ccc(Cl)c2cnccc12)NC1CC2(CCC2)Oc2ccc(Cl)cc21 (racemic) [Example 70, (±) 1-(6-Chloro-3,4-dihydro-spiro[2H-1-benzopyran-2,1′-cyclobutane]-4-yl)-3-(8-chloroisoquinolin-5-yl)urea]	< 50		
